Values quoted from earlier work, collected in patent US20160089380A1, “PROGESTERONE IMPREGNATED VAGINAL RING/PESSARY” (YALE UNIVERSITY, priority 2014, published 2016).

Key:
women [1] = conditions: two studies
women [2] = test system: women

CC(=O)[C@H]1CC[C@H]2[C@@H]3CCC4=CC(=O)CC[C@]4(C)[C@H]3CC[C@]12C [progesterone]
risk of preterm birth <34 weeks (RR) (women [1]; 438 women, 95% CI 0.45 to 0.90): 0.64
risk of preterm birth at <28 weeks' gestation (RR) (women [1]; 1115 women, 95% CI 0.37 to 0.93): 0.59
risk of preterm birth <37 weeks (average RR) (women [2]; 10 studies, 1750 women, 95% CI 0.42 to 0.74): 0.55
risk of preterm birth <34 weeks (average RR) (women [2]; five studies, 602 women, 95% CI 0.14 to 0.69): 0.31
increase in pregnancy prolongation, mean difference (MD) (women [2]; one study, 148 women, 95% CI 2.15 to 6.79): 4.47 weeks
